ChEMBL document CHEMBL4308841, “Synthesis, in vitro antiproliferative activity, and kinase inhibitory effects of pyrazole-containing diarylureas and diarylamides” (Eur J Med Chem, 2018)

test system: K562; assay: Growth inhibition of human K562 cells assessed as cell growth at 0.01 uM incubated for 48 hrs by sulforhodamine B assay relative to control; assay type: functional; conditions: K562, 48 h, read-out: Activity

SMILES	growth at 0.01 µM
COc1cc(Cl)cc(-c2nn(-c3cccc(NC(=O)c4cccc(C(F)(F)F)c4)c3)cc2-c2ccncc2)c1	108%

test system: OVCAR-3; assay: Growth inhibition of human OVCAR3 cells incubated for 48 hrs by sulforhodamine B assay; assay type: functional, cell-based; conditions: OVCAR-3, 48 h

SMILES	IC50
COc1cc(Cl)cc(-c2nn(-c3cccc(NC(=O)c4cccc(C(F)(F)F)c4)c3)cc2-c2ccncc2)c1	7.69 µM

same assay, conditions: OVCAR-3, 48 h, read-out: GI50

SMILES	GI50
COc1cc(Cl)cc(-c2nn(-c3cccc(NC(=O)c4cccc(C(F)(F)F)c4)c3)cc2-c2ccncc2)c1	7.59 µM

same assay, conditions: OVCAR-3, 48 h, read-out: LC50 (the source's name)

SMILES	CC50
COc1cc(Cl)cc(-c2nn(-c3cccc(NC(=O)c4cccc(C(F)(F)F)c4)c3)cc2-c2ccncc2)c1	> 100 µM

same assay, conditions: OVCAR-3, 48 h, read-out: TGI

SMILES	TGI
COc1cc(Cl)cc(-c2nn(-c3cccc(NC(=O)c4cccc(C(F)(F)F)c4)c3)cc2-c2ccncc2)c1	> 100 µM

same assay, conditions: OVCAR-3, 48 h, read-out: pGI50 (converted)

SMILES	GI50
COc1cc(Cl)cc(-c2nn(-c3cccc(NC(=O)c4cccc(C(F)(F)F)c4)c3)cc2-c2ccncc2)c1	7.76 µM

same assay, conditions: OVCAR-3, 48 h, read-out: pLC50 (the source's name) (converted)

SMILES	CC50
COc1cc(Cl)cc(-c2nn(-c3cccc(NC(=O)c4cccc(C(F)(F)F)c4)c3)cc2-c2ccncc2)c1	> 100 µM

same assay, conditions: OVCAR-3, 48 h, read-out: pTGI (converted)

SMILES	TGI
COc1cc(Cl)cc(-c2nn(-c3cccc(NC(=O)c4cccc(C(F)(F)F)c4)c3)cc2-c2ccncc2)c1	> 100 µM

test system: HCT-116; assay: Growth inhibition of human HCT116 cells assessed as cell growth at 1 uM incubated for 48 hrs by sulforhodamine B assay relative to control; assay type: functional; conditions: HCT-116, 48 h, read-out: Activity

SMILES	growth at 1 µM
COc1cc(Cl)cc(-c2nn(-c3cccc(NC(=O)c4cccc(C(F)(F)F)c4)c3)cc2-c2ccncc2)c1	71%

test system: Hs-578T; assay: Growth inhibition of human Hs578T cells incubated for 48 hrs by sulforhodamine B assay; assay type: functional, cell-based; conditions: read-out: GI50

SMILES	GI50
COc1cc(Cl)cc(-c2nn(-c3cccc(NC(=O)c4cccc(C(F)(F)F)c4)c3)cc2-c2ccncc2)c1	> 100 µM

same assay, conditions: read-out: LC50 (the source's name)

SMILES	CC50
COc1cc(Cl)cc(-c2nn(-c3cccc(NC(=O)c4cccc(C(F)(F)F)c4)c3)cc2-c2ccncc2)c1	> 100 µM

same assay, conditions: read-out: TGI

SMILES	TGI
COc1cc(Cl)cc(-c2nn(-c3cccc(NC(=O)c4cccc(C(F)(F)F)c4)c3)cc2-c2ccncc2)c1	> 100 µM

same assay, conditions: read-out: pGI50 (converted)

SMILES	GI50
COc1cc(Cl)cc(-c2nn(-c3cccc(NC(=O)c4cccc(C(F)(F)F)c4)c3)cc2-c2ccncc2)c1	> 100 µM

same assay, conditions: read-out: pLC50 (the source's name) (converted)

SMILES	CC50
COc1cc(Cl)cc(-c2nn(-c3cccc(NC(=O)c4cccc(C(F)(F)F)c4)c3)cc2-c2ccncc2)c1	> 100 µM

same assay, conditions: read-out: pTGI (converted)

SMILES	TGI
COc1cc(Cl)cc(-c2nn(-c3cccc(NC(=O)c4cccc(C(F)(F)F)c4)c3)cc2-c2ccncc2)c1	> 100 µM

test system: UACC-62; assay: Growth inhibition of human UACC62 cells assessed as cell growth at 0.1 uM incubated for 48 hrs by sulforhodamine B assay relative to control; assay type: functional; conditions: UACC-62, 48 h, read-out: Activity

SMILES	growth at 0.1 µM
COc1cc(Cl)cc(-c2nn(-c3cccc(NC(=O)c4cccc(C(F)(F)F)c4)c3)cc2-c2ccncc2)c1	94%

test system: OVCAR-8; assay: Growth inhibition of human OVCAR8 cells assessed as cell growth at 0.01 uM incubated for 48 hrs by sulforhodamine B assay relative to control; assay type: functional; conditions: OVCAR-8, 48 h, read-out: Activity

SMILES	growth at 0.01 µM
COc1cc(Cl)cc(-c2nn(-c3cccc(NC(=O)c4cccc(C(F)(F)F)c4)c3)cc2-c2ccncc2)c1	103%

test system: NCI-H23; assay: Growth inhibition of human NCI-H23 cells assessed as cell growth at 100 uM incubated for 48 hrs by sulforhodamine B assay relative to control; assay type: functional; conditions: NCI-H23, 48 h, read-out: Activity

SMILES	growth at 100 µM
COc1cc(Cl)cc(-c2nn(-c3cccc(NC(=O)c4cccc(C(F)(F)F)c4)c3)cc2-c2ccncc2)c1	27%

test system: SK-MEL-5; assay: Growth inhibition of human SK-MEL-5 cells assessed as cell growth at 0.01 uM incubated for 48 hrs by sulforhodamine B assay relative to control; assay type: functional; conditions: SK-MEL-5, 48 h, read-out: Activity

SMILES	growth at 0.01 µM
COc1cc(Cl)cc(-c2nn(-c3cccc(NC(=O)c4cccc(C(F)(F)F)c4)c3)cc2-c2ccncc2)c1	97%

test system: RPMI-8226; assay: Growth inhibition of human RPMI8226 cells incubated for 48 hrs by sulforhodamine B assay; assay type: functional, cell-based; conditions: RPMI-8226, 48 h

SMILES	IC50
COc1cc(Cl)cc(-c2nn(-c3cccc(NC(=O)c4cccc(C(F)(F)F)c4)c3)cc2-c2ccncc2)c1	3.13 µM

same assay, conditions: RPMI-8226, 48 h, read-out: GI50

SMILES	GI50
COc1cc(Cl)cc(-c2nn(-c3cccc(NC(=O)c4cccc(C(F)(F)F)c4)c3)cc2-c2ccncc2)c1	3.12 µM

same assay, conditions: RPMI-8226, 48 h, read-out: LC50 (the source's name)

SMILES	CC50
COc1cc(Cl)cc(-c2nn(-c3cccc(NC(=O)c4cccc(C(F)(F)F)c4)c3)cc2-c2ccncc2)c1	> 100 µM

same assay, conditions: RPMI-8226, 48 h, read-out: TGI

SMILES	TGI
COc1cc(Cl)cc(-c2nn(-c3cccc(NC(=O)c4cccc(C(F)(F)F)c4)c3)cc2-c2ccncc2)c1	> 100 µM

same assay, conditions: RPMI-8226, 48 h, read-out: pGI50 (converted)

SMILES	GI50
COc1cc(Cl)cc(-c2nn(-c3cccc(NC(=O)c4cccc(C(F)(F)F)c4)c3)cc2-c2ccncc2)c1	3.16 µM

same assay, conditions: RPMI-8226, 48 h, read-out: pLC50 (the source's name) (converted)

SMILES	CC50
COc1cc(Cl)cc(-c2nn(-c3cccc(NC(=O)c4cccc(C(F)(F)F)c4)c3)cc2-c2ccncc2)c1	> 100 µM

same assay, conditions: RPMI-8226, 48 h, read-out: pTGI (converted)

SMILES	TGI
COc1cc(Cl)cc(-c2nn(-c3cccc(NC(=O)c4cccc(C(F)(F)F)c4)c3)cc2-c2ccncc2)c1	> 100 µM

test system: SF-295; assay: Growth inhibition of human SF295 cells assessed as cell growth at 0.01 uM incubated for 48 hrs by sulforhodamine B assay relative to control; assay type: functional; conditions: SF-295, 48 h, read-out: Activity

SMILES	growth at 0.01 µM
COc1cc(Cl)cc(-c2nn(-c3cccc(NC(=O)c4cccc(C(F)(F)F)c4)c3)cc2-c2ccncc2)c1	98%

test system: HL-60(TB); assay: Growth inhibition of human HL-60(TB) cells assessed as cell growth at 1 uM incubated for 48 hrs by sulforhodamine B assay relative to control; assay type: functional; conditions: HL-60, 48 h, read-out: Activity

SMILES	growth at 1 µM
COc1cc(Cl)cc(-c2nn(-c3cccc(NC(=O)c4cccc(C(F)(F)F)c4)c3)cc2-c2ccncc2)c1	105%

test system: Malme-3M; assay: Growth inhibition of human MALME-3M cells assessed as cell growth at 100 uM incubated for 48 hrs by sulforhodamine B assay relative to control; assay type: functional; conditions: read-out: Activity

SMILES	growth at 100 µM
COc1cc(Cl)cc(-c2nn(-c3cccc(NC(=O)c4cccc(C(F)(F)F)c4)c3)cc2-c2ccncc2)c1	55%

test system: SK-MEL-2; assay: Growth inhibition of human SK-MEL-2 cells assessed as cell growth at 10 uM incubated for 48 hrs by sulforhodamine B assay relative to control; assay type: functional; conditions: SK-MEL-2, 48 h, read-out: Activity

SMILES	growth at 10 µM
COc1cc(Cl)cc(-c2nn(-c3cccc(NC(=O)c4cccc(C(F)(F)F)c4)c3)cc2-c2ccncc2)c1	56.4%
